Experiments:
Hbb^Th1/th1 mice [1] = experiment: Model 1 Hbb^Th1/th1 mice, first round: red blood cells production and iron overload; format: in vivo, mouse; settings: for RBC count / hemoglobin / hematocrit contents: Ip injection; for RBC count: day 1 to 5, FIG. 1A; for hemoglobin: day 1 to 5, FIG. 1B; for hematocrit contents: day 1 to 5, FIG. 1C; for iron content in bone marrow / iron content in spleen: day 5 after sacrifice, FIG. 1D
Excerpt: (§1) Hbb^th1/th1 mice carry a 3.7-kb homozygous spontaneous deletion that eliminates the Hemoglobin Subunit Beta (HBB) gene and 2 kb of the 5′ flanking region, including the promoter. On the basis of genetic and hematological criteria, these mice constitute the first animal model of beta-thalassemia.
(§2) Mouse models Hbb^Th1/Th1 with ineffective erythropoiesis and iron overload received intraperitoneal (Ip) injection of A1 or A3 derivatives starting on day 0.
(§3) In a first round of experiments, a complete red blood cells count (RBC) was achieved on day 1, day 2 and day 5.
(§4) On day 5, the animals were sacrificed and histology of their organs and iron measurement in organs was carried out.

[2] = system: skin fibroblasts from FA/BPAN patients; experiment: Western blot analysis of skin fibroblasts from FA/BPAN patients treated with ferric ammonium citrate; format: cell-based, human; settings: iron overload (FAC 100 uM)
Experimental: Further tests were carried out on skin fibroblasts from Friedreich ataxia and Beta-propeller protein-associated neurodegeneration (BPAN) patients, to assess in particular the effects of the compounds of the invention on iron accumulation in both the cytosol and mitochondria of said fibroblasts.
Cultured skin fibroblasts from Friedreich ataxia patients were used as described in Petit et al., Blood. 2021; 137 (15): 2090-2102 and Ingrassia et al., Front Genet 2017 Feb. 17; 8:18.

[3] = system: cells from beta-thalassemic patients; experiment: FACS analysis in cells from beta-thalassemic patients; format: cell-based, human; settings: cells from beta-thalassemic patients (n=3), FIG. 8D
Experimental: In vitro tests were carried out on cells derived from blood of β-thalassemic patients before transfusion

Tph1 KO mice [4] = experiment: Model 2 Tph1 KO mice, first round: red blood cells production and iron overload; format: in vivo, mouse; settings: for anemic phenotype / RBC count / hemoglobin / hematocrit contents / heme content in red blood cells / mean cellular volume (MCV): Ip injection; for RBC count: day 1 to 5, FIG. 2A; for hemoglobin: day 1 to 5, FIG. 2B; for hematocrit contents: day 1 to 5, FIG. 2C; for heme content in red blood cells: day 1 to 5, FIG. 2D; for mean cellular volume (MCV): day 1 to 5, FIG. 2E; for iron content in spleen / iron content in bone marrow: day 5 after sacrifice; for iron content in spleen: FIG. 2F; for iron content in bone marrow: FIG. 2G
Excerpt: (§5) This model is a peripheral serotonin deficient mice. It is a mouse model of low risk myelodysplastic syndrome, with ineffective erythropoiesis, light anemia, iron overload (spleen), abnormal red blood cells and apoptosis of proerythroblasts (see Côté et al., PNAS, 2003, 100 (23), 13525-13530).
(§6) Mouse models Tph1 KO with ineffective erythropoiesis and iron overload received intraperitoneal (Ip) injection of A1, A3, A4 derivatives or serotonin starting on day 0.
as §3, §4

Hamp KO mice = experiment: Model 3 Hamp KO mice: iron overload; format: in vivo, mouse
Excerpt: Hepcidin, encoded by the HAMP gene, is the main regulator of iron homeostasis, and its expression is tightly regulated by signals including iron levels, erythropoietic activity, hypoxia, and inflammation.
It is a mouse model of hemochromatosis. Hepcidin deficient mice progressively develop multivisceral iron overload; plasma iron overcomes transferrin binding capacity, and nontransferrin-bound iron accumulates in various tissues including pancreas and heart (see Nicolas et al., PNAS 2001, 98 (15), 8780-8785).
Mouse model of iron overload without ineffective erythropoiesis (Hamp KO) received intraperitoneal (Ip) injection of A3 derivatives or serotonin starting on day 0.
as §4

Tph1 KO mice [5] = experiment: Model 2 Tph1 KO mice, second round: iron distribution, FACS, ferritin; format: in vivo, mouse; parameters: condition of the mice compared with controls: dose or concentration left out as unconfirmed
Excerpt: as §5, §6
(§7) In a second round of experiments, a complete red blood cells count (RBC) was achieved on day 2 day 5, day 10, day 15, day 20, day 25 and day 30. 4 mice were sacrificed on day 5 and every 5 days afterward for toxicity tests, Flow Cytometry Analysis and FACS (fluorescence-activated single cell sorting) essentially on bone marrow and spleen, biochemical analysis, iron status (organs, serum and urines), and histology.

Hbb^Th1/th1 mice [6] = experiment: Model 1 Hbb^Th1/th1 mice, second round: FACS, RBC, body iron, urinary ferritin; format: in vivo, mouse; parameters: condition of the mice compared with control: dose or concentration left out as unconfirmed
Excerpt: as §1, §2, §7
ProE and Ebaso are part of phases I-II, EBaso and LBaso are part of phases III-IVa, Poly and Ortho are part of phases IVb-V of cells differentiation. The mature stage is also called “acido”.

[7] = 5-HT deficient (Tph1 KO) mice, vs PBS
[8] = Hbb^Th1/th1 mice, flow cytometry, day 13, vs PBS-treated mice
[9] = Hbb^th1/th1 mice, 21 days of injection, FIG. 5C

## C#CCOc1ccc2[nH]cc(CCN(CC#C)CC#C)c2c1 [Derivative A1, N-(prop-2-yn-1-yl)-N-(2-(5-(prop-2-yn-1-yloxy)-1H-indol-3-yl)ethyl) prop-2-yn-1-amine]
Hbb^Th1/th1 mice [1]
  RBC count: improved
  hemoglobin: improved
  hematocrit contents: improved
  iron content in bone marrow: relocate into cells of the bone marrow
  iron content in spleen: decreased the iron overload in spleen

## C#CCNCCc1c[nH]c2ccc(O)cc12.O=CO [Derivative A3, N-(2-(5-hydroxy-1H-indol-3-yl)ethyl)prop-2-yn-1-aminium formate]
[2]; FIG. 9B
  increased p62 expression: ~60%
[2]; FIGS. 9A-9B
  decreased FTH expression: ~40%
[3]
  differentiation of erythroid progenitors: increases differentiation of erythroid progenitors
  immature/mature ratio: decrease
Hbb^Th1/th1 mice [1]
  RBC count: improved
  hemoglobin: improved
  hematocrit contents: improved
  iron content in bone marrow: relocate into cells of the bone marrow
  iron content in spleen: decreased the iron overload in spleen
Tph1 KO mice [4]
  anemic phenotype: ameliorate the anemic phenotype
  RBC count: improved
  hemoglobin: improved
  hematocrit contents: improved
  heme content in red blood cells: improved
  mean cellular volume (MCV): decrease
  iron content in spleen: mobilized out of the spleen
  iron content in bone marrow: relocate into cells of the bone marrow
Hamp KO mice; day 5, FIG. 3B
  iron level in the liver: reduced
Tph1 KO mice [5]; [7]
  cell blood survival: increased
  erythroid expansion: restored
Tph1 KO mice [5]; Tph1 KO mice, 5 days of treatment, vs non-treated, FIG. 7A
  cellular iron misdistribution: corrects cellular iron misdistribution
Tph1 KO mice [5]; Tph1 KO mice, 21 days of IP injection, vs PBS, FIG. 7B
  cellular iron misdistribution: corrects cellular iron misdistribution
Tph1 KO mice [5]; Tph1 KO mice, 21 days, FIG. 7C
  pathological features of ineffective erythropoiesis: corrects
Tph1 KO mice [5]; Tph1 KO mice, 21 days, bone marrow, FIG. 7C
  iron overload (ferritin level): decrease iron overload
Tph1 KO mice [5]; Tph1 KO mice, IP for 5 and 21 days
  condition of the mice compared with controls: improved condition of the mice
Hbb^Th1/th1 mice [6]; Hbb^Th1/Th1 mice, vs PBS
  cell survival: increased
  erythroid expansion: restored
  maturation arrest: stopped
Hbb^Th1/th1 mice [6]; Hbb^Th1/th1 mice, Ip for 13 and 21 days, vs PBS
  condition of the mice compared with control: improved condition of the mice
Hbb^Th1/th1 mice [6]; Hbb^Th1/th1 mice, conclusion from flow cytometry
  pathological features of β-thalassemia: corrects pathological features of β-thalassemia
Hbb^Th1/th1 mice [6]; Hbb^Th1/th1 mice, day 13, vs control mice, FIG. 5D
  urinary ferritin levels: significant increase
Hbb^Th1/th1 mice [6]; [8]
  percentage Ter-119+CD71+FSC cells (III-IVa) in bone marrow: decrease
  percentage and absolute number of Ter-119+CD71−FSC cells (IVb-V) in bone marrow: increase
Hbb^Th1/th1 mice [6]; Hbb^th1/th1 mice, 13 days of injection, FIG. 5A
  bone marrow expansion: correction of bone marrow expansion
Hbb^Th1/th1 mice [6]; Hbb^th1/th1 mice, 13 days of injection, FIG. 5B
  iron overload (total body iron content): decrease in iron overload
Hbb^Th1/th1 mice [6]; Hbb^th1/th1 mice, 21 days of injection
  ratio immature/mature erythroblasts (Ratio Poly/Acido): restores
Hbb^Th1/th1 mice [6]; [9]
  iron overload (total body iron content): decrease iron overload
  number of erythroid progenitors: Decrease
  number of mature erythroid cells: Increase

## C#CCN(CC#C)CCc1c[nH]c2ccc(O)cc12 [Derivative A4, 3-(2-(di(prop-2-yn-1-yl)amino)ethyl)-1H-indol-5-ol]
Tph1 KO mice [4]
  anemic phenotype: ameliorate the anemic phenotype
  RBC count: improved
  hemoglobin: improved
  hematocrit contents: improved
  heme content in red blood cells: improved
  mean cellular volume (MCV): decrease
  iron content in spleen: mobilized out of the spleen
  iron content in bone marrow: relocate into cells of the bone marrow

## NCCc1c[nH]c2ccc(O)cc12 [serotonin, 5-hydroxytryptamine]
Tph1 KO mice [4]
  anemic phenotype: ameliorate the anemic phenotype
  RBC count: improved
  hemoglobin: improved
  hematocrit contents: improved
  heme content in red blood cells: improved
  mean cellular volume (MCV): decrease
  iron content in spleen: mobilized out of the spleen
  iron content in bone marrow: relocate into cells of the bone marrow
Hamp KO mice; day 5, FIG. 3A
  iron level in the blood: reduced
Hamp KO mice; day 5, FIG. 3C
  transferrin saturation: reduced
